Like-named read-outs stand apart in the source and are kept apart here.

Experiment [1] addresses T1, recombinant EcTP enzyme (thymidine phosphorylase) (Escherichia coli, UniProt P07650).
T1 construct: purchased
Description: biochemical. The procedure: (§1) In this study, we utilized commercially available recombinant EcTP enzyme as a model for TP inhibition assessment due to its structural similarities with mammalian TP enzymes. Spectrophotometric TP inhibition assays were conducted by incubating 0.058 U of EcTP enzyme with 500 µM of test compounds at 30°C for 10 min. Subsequently, 1.5 mM of thymidine substrate was added, and absorbance changes were monitored for 10 min at 290 nm using a microplate reader. […] Mechanistic studies involved incubating the TP enzyme with varying inhibitor concentrations and substrate concentrations ranging from 0.1875 to 1.5 µM. Enzyme activity was assessed by measuring absorbance changes for an additional 10 min. Triplicate experiments were conducted for mechanistic investigations to ensure the results' robustness.

The target of experiment [2] is T2, thymidine phosphorylase (EcTP) (Escherichia coli, UniProt P07650).
T2 construct: purchased
Description: biochemical. On the procedure:
Mechanism‐based studies were carried out on the selected compounds, that is, 1, 2, and 5.
as §1
Chemical reactions were examined using kinetic studies to determine their rates, mode of inhibition, and the variables influencing these characteristics. The kind and mechanism of inhibition of derivatives are ascertained here. Test compounds (0.5–500 µM) were incubated with TP (0.058 U/200 µL) for 10 min at 30°C in mechanistic studies. The addition of various thymidine concentrations (varying from 0.1875 to 1.5 µM) then started the process. Thymidine cleavage was tracked at 290 nm for ten min straight using an ELISA plate reader (SpectraMax 384; Molecular Devices, San Jose, CA, USA).

Setting [3] is: 500 µM test compound, 0.058 U EcTP, 1.5 mM thymidine, 30°C, read-out: % Inhibition.
Where [4] appears, read: EcTP, thymidine substrate, absorbance at 290 nm, triplicate, read-out: IC50 ± SEM.
[5] abbreviates: dissociation constant from secondary replot of Lineweaver-Burk and Dixon plots, unit printed in text b13 only, read-out: Ki ± SEM.
[6] abbreviates: thymidine as variable substrate.

T2 sequence (P07650 whole entry): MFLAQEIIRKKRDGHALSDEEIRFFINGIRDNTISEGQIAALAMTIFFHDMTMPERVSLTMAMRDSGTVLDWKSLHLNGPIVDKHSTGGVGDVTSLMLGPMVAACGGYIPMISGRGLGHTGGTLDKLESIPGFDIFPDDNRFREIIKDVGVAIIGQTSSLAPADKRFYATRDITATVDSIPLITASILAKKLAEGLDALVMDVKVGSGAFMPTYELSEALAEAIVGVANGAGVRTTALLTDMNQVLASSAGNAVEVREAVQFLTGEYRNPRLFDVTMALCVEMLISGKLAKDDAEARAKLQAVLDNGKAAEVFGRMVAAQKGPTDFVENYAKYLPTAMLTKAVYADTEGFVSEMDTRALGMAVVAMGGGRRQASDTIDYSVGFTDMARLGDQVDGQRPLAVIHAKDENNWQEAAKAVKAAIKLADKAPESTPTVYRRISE
T1 sequence (P07650 whole entry): as above

`CC(C)=CCC1=C(O)C(=O)c2ccccc2C1=O` [Lapachol (1), Lapachol]: the inhibition at 500 µM in experiment [1] (setting [3]) came to 86.2%. The IC50 in experiment [1] (setting [4]) stood at 2.3 ± 0.1 µM. Also, the inhibition constant Ki in experiment [2] (setting [5]) is 4.6 ± 0.006 µM. The “Type of Inhibitor” value in experiment [2] (setting [6]) is on record as “Non‐competitive”.
Take `COC(=O)C1(O)c2ccccc2C(=O)C1(O)CC=C(C)C` (stereo not drawn) [Indanone derivative (5), Methyl‐1,2‐dihydroxy‐2‐(3‐methylbut‐2‐en‐1‐yl)‐3‐oxo‐2,3‐dihydro‐1H‐indene‐1carboxylate]: in experiment [1], the IC50 is 1.8 ± 0.5 µM and the inhibition at 500 µM was 91.3%. The Ki in experiment [2] is 7.1 ± 0.009 µM. Also, the “Type of Inhibitor” value in experiment [2] (setting [6]) is “Non‐competitive”.
`O=c1[nH]c(=O)c2cc[nH]c2[nH]1` [7‐Deazaxanthine, reference compound]: in experiment [1], the inhibition at 500 µM amounted to 80.6%. Further, the “Type of Inhibitor” value in experiment [2] is reported as “Non‐competitive”.
For `CC1(C)C=CC2=C(O1)C(=O)c1ccccc1C2=O` [Dehydro‐α‐lapachone (4), Dehydro‐α‐lapachone], the inhibition at 500 µM in experiment [1] (setting [3]) turned out to be 82.6%. Also, the IC50 in experiment [1] (setting [4]) amounted to 17.2 ± 1 µM.
As for `CC1(C)CCC2=C(O1)C(=O)c1ccccc1C2=O` [Alpha‐lapachone (2), Alpha‐lapachone], the inhibition at 500 µM in experiment [1] (setting [3]) turned out to be 88.3%. For the same compound, in experiment [1] (setting [4]), the 50% inhibitory concentration (IC50) came out at 3.6 ± 0.9 µM. The inhibition constant (Ki) in experiment [2] (setting [5]) amounted to 4.9 ± 0.008 µM. Further, in experiment [2] (setting [6]), the “Type of Inhibitor” value is given as “Non‐competitive”.
Regarding `CC(C)=C(C)[C@H]1C[C@]2(C)OC3=C(C(=O)c4ccccc4C3=O)[C@H]3[C@@H]2[C@@]12C(=O)c1ccccc1[C@@]3(O)C2=O` [Peshawaraquinone (3), Peshawaraquinone], in experiment [1] (setting [3]), the inhibition at 500 µM came out at 87.1%. In addition, the half-maximal inhibitory concentration (IC50) in experiment [1] (setting [4]) was found to be 4.9 ± 0.8 µM.

For orientation: inhibition means the drop in the measured response relative to a control, in per cent. The term IC50 denotes the concentration that gives 50% inhibition. One may read the Ki as a measure of affinity in units of concentration, obtained from inhibition or displacement.
